The text below walks through data of patent US8173618B2, “Formulations for reducing neuronal degeneration” (University of Massachusetts, priority 2003, dated 2012).

One data set has as its system murine cortical neurons. The experiment in a line: PHF-1 immunofluorescence in murine cortical neurons with or without folate. In kind it is cell-based, mice. Particulars: folate deficiency, two hours. The protocol:
For immunocytochemistry to detect paired helical filament-1 (PHF-1) staining (as an index of tau phosphorylation), cells were fixed for 15 minutes with 4% paraformaldehyde in 0.1 M phosphate buffer and immunostained by sequential reaction with a mouse monoclonal PHF-1 antibody that was raised against tau from paired helical filaments isolated from the brains of Alzheimer disease patients. Incubation with PHF-1 antibody was followed by rhodamine conjugated goat anti-mouse IgG and visualization using methods known in the art. […] In these experiments, SH-SY-5Y cells were cultured in folate-deficient Dulbecco's Modified Essential Medium (DMEM; Sigma) in the absence of serum for two hours. Cortical neurons were prepared from 12 day embryonic C57/B16 day old mice using known methods. The cortical neurons were cultured for 3 days in neurobasal medium with B27 supplements ([…] et al., 1999, J. Biol. Chem., 274:30322-30327). […] Both the SH-SY-5Y cultures and the cortical neurons were processed for PHF-1 (paired helical filament 1) immunofluorescence using known methods ([…] et al., 1999 supra). Control cells cultured in the continued presence of normal folate levels were also processed. Phospho-tau was also examined using immunoblot analysis. […]

Another data set has as its system SH-SY-5Y cells. Kind of data set: HPLC analysis of glutathione and thiols in SH-SY-5Y cells. It is filed as cell-based, human. The protocol: Glutathione levels were quantified in homogenates of SH-SY-5Y cells. Cultures were rinsed twice with Tris-buffered saline (TBS), scraped from the plate in a small volume of TBS and homogenized on ice. Medium was also utilized for analysis of HCY along with cellular lysates, since HCY is normally exported from cells. Homogenates (100 μl) were reduced by mixing with 50 μl of 100 μM N-acetylcysteine or with 30 μl of 30 μM cystamine (as an internal standard) and 10 μl of tri-carboxyethylphosphine (100 mg/ml in 0.05 M HCl). Samples were vortexed, incubated at room temperature for 30 minutes, then centrifuged at 10,000×g for 10 minutes. 80 μl of the resulting supernatant were combined with 160 μl of 2 M boric acid/4 mM EDTA (pH 10.5), followed by 80 μl of 1.0 mg/ml SBDF [7-fluorobenzo-2-oxa-1,3-diazole-4-sulfonate] in boric acid/EDTA buffer). Samples were mixed, incubated for 60 minutes at 60° C., equilibrated to reach temperature, and 50 μl of the sample was then injected into a Hewlett Packard model 1090 HPLC, which is used with a 1046A fluorescence detector and a Hewlett Packard 4.6×60 mm high-speed analytical column packed with 3 μM ODs (C18) Hypersil silica. The mobile phase consisted of methanol/0.2 M acetate buffer pH 4.0 (2/98 by volume). Glutathione concentrations were then determined by comparison of peak area ratios of glutathione to the internal standard N-acetylcysteine in the sample compared to peak areas obtained for a glutathione standard curve. Samples were derived from 3-4 normal and 3-4 ApoE−/− mice for each dietary condition, from ≧2 independent experiments (total n≧6 for each diet for both experiments).
NAC directly scavenges ROS and also provide a source of intracellular cysteine for synthesis of glutathione during conditions of oxidative stress. […] Differentiated SH-SY-5Y cells with and without NAC treatment were subjected to HPLC along with 50 μM each of multiple thiol standards (“Standards”) as indicated in FIGS. 18A to 18C.

The test system of data set [1] is differentiated SH-SY-5Y cells. Kind of data set: Intracellular ROS by DCFD fluorescence in differentiated SH-SY-5Y cells. It is filed as cell-based, human. As to the method:
Cultured cells were used to test individual agents and formulations. In general, SH-SY-5Y human neuroblastoma cells were cultured in DMEM (Cellgro) containing 10% fetal bovine serum in 5% CO2.
For treatments with Abeta, differentiated cultures were transferred to medium without serum and treated for two hours with 20 μM Abeta25-35 (Sigma Chemical Co., St. Louis, Mo.). […] Louis, Mo.). In experiments calling for treatment of cell cultures with N-acetyl cysteine (NAC; NALC), cultures were treated with 10 mM NAC (Sigma Chemical Co., St. Louis, Mo.) after the culture was grown for two hours in serum-free medium.
Intracellular reactive oxygen species (ROS) were monitored as described in Ekinci et al., 1999 (J. Biol. Chem., 274:30322-30327). Briefly, cells were incubated for 30 minutes with dichloro-fluorescein diacetate (DCFD; acetoxymethyl ester; Molecular Probes, Inc., Eugene, Oreg.), which is used to detect intracellular peroxide levels. Incubation was followed by rinsing of cultures in serum-free medium and immediate capture of images using UV optics. Images were captured under epifluorescent and phase-contrast illumination using a DAGE CCL-72 cooled CCD camera via a Scion LG-3 frame grabber operated by NIH Image (see the Internet at rsb.info.nih.gov/nih-image). Images were then stored as PICT files on a Macintosh Power PC 7100AV for subsequent analysis. At least 100 cells in randomly-selected fields from duplicate cultures derived from multiple experiments were scored for fluorescent intensity using NIH Image analysis software. Representative background areas devoid of cells were similarly analyzed and subtracted from cell values to yield net densitometric values. All fields for each individual assay were illuminated, captured, and processed under identical settings. Corresponding phase-contrast images were obtained. Cell aggregates were excluded from the assays; only individual cells were quantified. Values were exported to Excel for statistical analyses using Student's t test.
For monitoring of intracellular peroxide concentrations as an index of ROS, cultures received 10 μl/ml DFCD (2′7′-dichlorofluorescein diacetate; Kodak) for 20 minutes. Cultures were then visualized under fluorescein UV optics (perikaryon; Ekinci and Shea, 1999, supra).

The conditions of data set [2]: Snowdon et al., 2000; cited from earlier work.

Where “and” joins values, the source holds several entries; their conditions need not be identical. Identical values can stand only once.

With `Nc1nc2ncc(CNc3ccc(C(=O)N[C@@H](CCC(=O)O)C(=O)O)cc3)nc2c(=O)[nH]1` [folate, folic acid], the “average increase in PHF-1 immunofluorescence” value in the data set with murine cortical neurons was determined as 1.5 fold. Moreover, the total glutathione levels entry in the data set on SH-SY-5Y cells (brief (two hour) folate deprivation) is listed as “no significant change”. Moreover, the “depletion of total glutathione levels” value with SH-SY-5Y cells (folate deprivation for 24 hours) is “approximately 45%”. Further, the values for the oxidized glutathione in the data set with SH-SY-5Y cells (in the presence of folate) and in the data set with SH-SY-5Y cells (two hours of folate deprivation) were 4% and 46%, respectively. Moreover, in data set [1] (5×folate (20 mg/l), 20 μM Abeta two hours), the “Abeta-induced increase in ROS” value was “prevented”. Moreover, the “ROS in otherwise untreated cells” value in data set [1] (10×folate compared to 1-5×folate) is recorded as “marginal decrease in ROS”. Moreover, the “ROS Mean ± SEM” value in data set [1] (folate (control), two hours) was found to be 7.6 ± 0.3; in data set [1] (no folate, two hours), 10.5 ± 0.5. Also, the “increase in ROS” value in data set [1] (folate deprivation, compared to cells cultured in the presence of folate (Example 6)) was 64±5%. In addition, the “ROS % increase vs. control” value in data set [1] (no folate, two hours, vs cultures receiving folate) was 38±4% and 38%. For the same compound, the ROS result in data set [1] (single agent, control cells and cells exposed to Abeta, two hours) is “reduced ROS”. The “concentration in spinal fluid versus plasma” value in data set [2] is “concentrated four-fold within spinal fluid over that observed within plasma”.
